Test results: patent US20250340939A1 (priority 2021, published 2025)
“Also recorded” adds a separate entry of the source. Where two headings read alike, the source gives them in different places.

Columns and labels:
Format in all cases: binding
16S rRNA (E. coli) = assay: MST of Cy5 probes hybridized with total bacterial RNA; settings: 100 μM Dox, red mode
Procedure: For bacterial RNA extraction, DH5α E. coli cells transfected with pcDNA3.1+ plasmid were grown overnight in LB medium containing 100 μg/ml ampicillin. The concentration of bacterial cells was determined according to OD at 600 nm, and ˜7·10^8 cells were taken for RNA extraction. 1 volume of bacterial culture was mixed with 2 volumes of RNAprotect® Bacteria Reagent (QIAGEN), vortexed for 5 seconds and incubated for 5 minutes at room temperature. The sample was then centrifuged for 10 minutes at 5,000×g at room temperature. After discarding supernatant, the pellet was resuspended in 100 μl TE buffer (10 mM Tris-HCl, 1 mM EDTA, pH 8) containing 1 mg/ml lysozyme. The samples were vortexed for 5 seconds, and then incubated at room temperature for 10 minutes with vortexing every 2 minutes. 1 ml TRIzol™ reagent was added to the sample. The sample was incubated at room temperature for 5 minutes, and then RNA extraction was performed as described hereinabove.
(§1) RNA was extracted from a sample, and after extraction, the RNA pellet was solubilized and hybridized with a specific fluorescently labeled DNA probe in a hybridization solution (as schematically depicted in FIG. 1). After hybridization, the hybridized sample was loaded into an MST capillary and inserted into a Monolith™ MST instrument (NanoTemper Technologies GmbH, Germany). This instrument included a blue mode (493 nm excitation, […]) and red mode ([…], 670 nm emission) for detection, and an I.R laser (1475 nm+/−15 nm) for heating. The intensities for both fluorescence detection (LED) and IR laser are adjustable, in a range of 0%-100%, wherein the temperature gradient generated has a temperature difference of up to about 2-8° C. Thermophoretic force was induced by infrared laser after 1 second, and maintained for 2 seconds, for a total of a 3 second measurement window (measurement time may optionally be further reduced to 2 seconds using current available MST instruments).
For RNA titration measurements, the extracted RNA solution was diluted to X2 and a serial dilution was prepared in water. Hybridization solutions were prepared as described herein, were X1 solution consisted of SSC buffer X1, 0.05% TWEEN™ 20 surfactant, and 1% formamide unless indicated otherwise. Fluorescently labeled probes were diluted from a 100 μM stock to 1:2400 in hybridization solution X2, denatured for 5 minutes at 100° C. and then incubated on ice for 5 minutes. If a mixture of uniformly labeled probes was prepared, the probes were diluted to a 1:1200 dilution in water and then diluted to 1:2400 with hybridization solution X4 (1:1/number of probes) to create equal molarity of the fluorescent dye. The probe solution was combined with the titration series in a 1:1 (v/v) ratio (10 μL total volume) and allowed to hybridize at a defined temperature for a given time as described. If post-hybridization with intercalating agents (ICA), doxorubicin or Midori™ Green, was performed, the samples were combined with ICA X5 solution 4:1 (v:v) ratio, 8 μL and 2 μL respectively. For cell based measurements, after extraction, the RNA pellet was solubilized and hybridized with a specific fluorescently labeled DNA probe in a hybridization solution (as schematically depicted in FIG. 1).
In order to determine the optimal hybridization temperature, one of the designed probes (16S1^Cy5) was incubated with increasing concentrations of bacterial RNA at different temperatures for 10 minutes. MST measurements were then performed using the red wavelength acquisition mode.
In order to assess the effect of human RNA presence and Dox post-hybridization on signal response, 16S1^Cy5 was incubated with increasing concentrations of bacterial or human total RNA at 71° C. for 2 hours. Equal amounts were then taken for post-hybridization incubation with Dox or hybridization buffer as a control. […]

18S rRNA (human) = assay: MST of probe hybridized with human RNA extracted from HEK 293T cells
Description: as §1
For RNA titration measurements, the extracted RNA solution was diluted to X2 and a serial dilution was prepared in water. Hybridization solutions were prepared as described herein, were X1 solution consisted of SSC buffer X1, 0.05% TWEEN™ 20 surfactant, and 1% formamide unless indicated otherwise. Fluorescently labeled probes were diluted from a 100 μM stock to 1:2400 in hybridization solution X2, denatured for 5 minutes at 100° C. and then incubated on ice for 5 minutes. […]
As depicted in FIG. 3, fluorescent signals were quantified in the 1 second before application of a temperature gradient (Fcold) and between 1 and 2 seconds after application of the temperature gradient (Fhot). […]
As the probes are tagged with different florescent dyes, 18S^ATTO488 can be used as a control for the RNA extraction process. […] The signals of 18S^ATTO488 were measured using a blue wavelength acquisition mode and S^Cy5 using a red wavelength acquisition mode. […]

S-gene RNA (SARS-CoV2) = settings: for direction of thermophoretic flux / dependence of thermophoretic signal on S-gene RNA concentration: in the presence of 100 μM Dox; for direction of thermophoretic flux: increasing S-gene; for ΔFnorm (signal response): FIG. 37; for dependence of thermophoretic/fluorescent signal on S-gene RNA concentration: no intercalating agent, red wavelength acquisition mode
HA gene (H1N1 influenza) = system: HA gene (H1N1 influenza)
S-HA gene = assay: MST of probes with artificial S-HA gene RNA (target length effect)
control RNA = assay: MST of probes incubated with control RNA (specificity); settings: in the presence of 100 μM Dox; red mode

16S2^Cy5: Cy5-labeled 44 nucleotide DNA probe (SEQ ID NO: 10) complementary to E. coli 16S rRNA (DNA GCGGCCGTACTCCCCAGGCGGTCGACTTAACGCGTTAGCTCCGG; DNA, backbone not given here; Cy5 dye label)
direction of thermophoretic migration (MST curves) (16S rRNA (E. coli)): migrated towards the heating zone both in the presence of bacterial RNA

16S4^Cy5: Cy5-labeled 36 nucleotide DNA probe (SEQ ID NO: 12) complementary to E. coli 16S rRNA (DNA GGCAGTCTCCTTTGAGTTCCCGGCCGGACCGCTGGC; DNA, backbone not given here; Cy5 dye label)
direction of thermophoretic migration (MST curves) (16S rRNA (E. coli)): A similar effect was observed

16S7^Cy5: Cy5-labeled 45 nucleotide DNA probe (SEQ ID NO: 15) complementary to E. coli 16S rRNA (DNA CCCCCTCCATCAGGCAGTTTCCCAGACATTACTCACCCGTCCGCC; DNA, backbone not given here; Cy5 dye label)
direction of thermophoretic migration (MST curves) (16S rRNA (E. coli)): migrated towards the heating zone in the presence of increasing concentrations of bacterial RNA, but away from the heating zone in the absence of bacterial RNA
sensitivity to target RNA concentration (linear regression slope) (16S rRNA (E. coli); single probes, 10 minutes hybridization): significantly more sensitive to target RNA concentration than the other tested probes

18S^ATTO488: probe with SEQ ID NO: 6 tagged with blue fluorescent dye ATTO 488, targets human 18S rRNA (DNA AGGGGCTGACCGGGTTGGTTTTGATCTGATAAATGCACGCATCCCC; ATTO 488 label; misc_feature 1..46 ATTO488 labeled; DNA sequence complementary to nucleotides 205-250 of SEQ ID NO: 5)
selectivity of signal response to target RNA (18S rRNA (human); 100 ng/μl HEK 293T RNA vs 400 ng/μl S-gene, 400 ng/μl control RNA or no RNA, blue mode): selective signal responses to their target RNA
dependence of fluorescent signal on complementary RNA dose (18S rRNA (human); RNA extracted from HEK 293T cells, blue mode): dependent on the dose of complementary RNA
concomitant detection of 18S rRNA in human extracted RNA (18S rRNA (human); mixed with S^Cy5, hybridization at 42° C. for 30 minutes): effective and quantitative

HA^ATTO488: DNA having SEQ ID NO: 8 tagged with blue fluorescent dye ATTO 488, targets H1N1 HA-gene (DNA TGAAGCCGGCAATGGCCCCGAATAGGCCTCTAG; ATTO 488 label; misc_feature 1..33 DNA sequence complementary to nucleotides 567-599 of SEQ ID NO: 7 (nucleotides 1048-1080 of Influenza A H1N1 HA gene; ATTO488 labeled)
dependence of signal on S-gene concentration (off-target) (S-gene RNA (SARS-CoV2); SSC X1, 10% (v/v) formamide, blue mode): not on the concentration of S-gene or control RNA
effect of higher saline sodium citrate buffer concentration on detection sensitivity (HA gene (H1N1 influenza); SSC X1, X2, X4, blue mode): increased detection sensitivity
dependence of signal on HA-gene concentration (HA gene (H1N1 influenza); blue mode): dose-dependent signal; also recorded: dependent on the concentration of HA-gene

SE^Cy5: Cy5-tagged 22 nucleotide DNA probe (SEQ ID NO: 3) designed to bind at the edge of the S-gene (DNA CAATATCACCAAGGCAATCACC; DNA, backbone not given here; Cy5 dye label)
direction of thermophoretic flux (S-gene RNA (SARS-CoV2); red mode): directed away from the heating zone
ΔFnorm (signal response) (S-gene RNA (SARS-CoV2); no Dox): 54.41 ‰
dependence of thermophoretic/fluorescent signal on S-gene RNA concentration (S-gene RNA (SARS-CoV2)): exhibited a thermophoretic signal dependent on S-gene RNA concentration
maximum signal response, S-gene vs S-HA gene (S-HA gene; red mode, FIG. 55): considerably stronger in the presence of S-gene than in the presence of S-HA

SN^Cy5: Cy5-tagged 22 nucleotide "non-binding" DNA probe (SEQ ID NO: 4), negative control (DNA CACCATTAGTGGGTTGGAAACC; DNA, backbone not given here; Cy5 dye label)
dependence of thermophoretic signal on S-gene RNA concentration (S-gene RNA (SARS-CoV2); red mode): not affected by RNA concentration
dependence of thermophoretic/fluorescent signal on S-gene RNA concentration (S-gene RNA (SARS-CoV2)): exhibits no change in MST signal; also recorded: no dependence; also recorded: did not generated dose-dependent signals

S^Cy5: 33 base DNA (SEQ ID NO: 2) tagged with red dye Cy5, binds the middle of SARS-CoV2 S-gene RNA (DNA GGATTGACTAGCTACACTACGTGCCCGCCGAGG; DNA, backbone not given here; Cy5 dye label)
average maximum ΔFnorm (S-gene RNA (SARS-CoV2)): 547.1 ‰
selectivity of signal response to target RNA (S-gene RNA (SARS-CoV2)): selective signal responses to their target RNA
direction of thermophoretic flux (S-gene RNA (SARS-CoV2); red mode): towards the heating zone
dependence of thermophoretic signal on S-gene RNA concentration (S-gene RNA (SARS-CoV2); red mode): altered by S-gene RNA in a dose-dependent manner
Z′-factor (S-gene RNA (SARS-CoV2); maximum signal response with S-gene compared to no RNA control): 0.85
concomitant detection of S-gene in presence of human extracted RNA (S-gene RNA (SARS-CoV2); mixed with 18S^ATTO488, hybridization at 42° C. for 30 minutes): effective and quantitative
ΔFnorm (signal response) (S-gene RNA (SARS-CoV2); no Dox): 110.63 ‰
average maximum ΔFnorm (S-gene RNA (SARS-CoV2); no Dox, red mode): 116.5 ‰
dependence of thermophoretic/fluorescent signal on S-gene RNA concentration (S-gene RNA (SARS-CoV2)): dependent on the dose of complementary RNA; also recorded: exhibited a thermophoretic signal dependent on S-gene RNA concentration
sensitivity (slope at low RNA levels), S-HA-gene vs S-gene (S-HA gene): considerably greater sensitivity than towards S-gene
affinity towards S-HA gene compared with S-gene (S-HA gene; red mode, FIG. 55): higher affinity towards S-HA gene than to S-gene
maximum signal response, S-gene vs S-HA gene (S-HA gene; red mode, FIG. 55): did not differ
signal response to HA-gene (off-target) (HA gene (H1N1 influenza); red mode, data not shown): no response in signal was observed
effect of control RNA on probe signal (control RNA): no effect
